Reference: patent US20240238300A1, “TREATMENT METHODS FOR SUBJECTS WITH CANCER HAVING AN ABERRATION IN EGFR AND/OR HER2” (TAIHO PHARMACEUTICAL CO., LTD., priority 2021, published 2024)

Columns and labels:
[1] = test system: MCF10A_HER2/insYVMA cells; test: growth inhibitory effect in human cancer cell lines (GI50); format: cell-based; conditions: engineered to express HER2 A775_G776insYVMA
TEC = TEC (Homo sapiens, UniProt P42680); test: panel enzyme assay of 257 kinases; format: biochemical; conditions: read-out: % Inhibition by Compound (1) at 1000 nmol/L
Experimental: (§1) To investigate further kinase selectivity of Compound (1), a panel enzyme assay of 257 kinases for Compound (1) was conducted.

HER2 = HER2 (Homo sapiens, UniProt P04626); test: panel enzyme assay of 257 kinases; format: biochemical; conditions: read-out: % Inhibition by Compound (1) at 1000 nmol/L
Experimental: as §1

BMX = BMX (Homo sapiens, UniProt P51813); test: panel enzyme assay of 257 kinases; format: biochemical; conditions: read-out: % Inhibition by Compound (1) at 1000 nmol/L
Experimental: as §1

TXK = TXK (Homo sapiens, UniProt P42681); test: panel enzyme assay of 257 kinases; format: biochemical; conditions: read-out: % Inhibition by Compound (1) at 1000 nmol/L
Experimental: as §1

EPHA6 = EPHA6 (Homo sapiens, UniProt Q9UF33); test: panel enzyme assay of 257 kinases; format: biochemical; conditions: read-out: % Inhibition by Compound (1) at 1000 nmol/L
Experimental: as §1

BTK = BTK (Homo sapiens, UniProt Q06187); test: panel enzyme assay of 257 kinases; format: biochemical; conditions: read-out: % Inhibition by Compound (1) at 1000 nmol/L
Experimental: as §1

KDR = KDR (Homo sapiens, UniProt P35968); test: panel enzyme assay of 257 kinases; format: biochemical; conditions: read-out: % Inhibition by Compound (1) at 1000 nmol/L
Experimental: as §1

BLK = BLK (Homo sapiens, UniProt P51451); test: panel enzyme assay of 257 kinases; format: biochemical; conditions: read-out: % Inhibition by Compound (1) at 1000 nmol/L
Experimental: as §1

FLT4 = FLT4 (Homo sapiens, UniProt P35916); test: panel enzyme assay of 257 kinases; format: biochemical; conditions: read-out: % Inhibition by Compound (1) at 1000 nmol/L
Experimental: as §1

DDR1 = DDR1 (Homo sapiens, UniProt Q08345); test: panel enzyme assay of 257 kinases; format: biochemical; conditions: read-out: % Inhibition by Compound (1) at 1000 nmol/L
Experimental: as §1

JAK3 = JAK3 (Homo sapiens, UniProt P52333); test: panel enzyme assay of 257 kinases; format: biochemical; conditions: read-out: % Inhibition by Compound (1) at 1000 nmol/L
Experimental: as §1

ITK = ITK (Homo sapiens, UniProt Q08881); test: panel enzyme assay of 257 kinases; format: biochemical; conditions: read-out: % Inhibition by Compound (1) at 1000 nmol/L
Experimental: as §1

EGFR = EGFR (Homo sapiens, UniProt P00533); test: panel enzyme assay of 257 kinases; format: biochemical; conditions: read-out: % Inhibition by Compound (1) at 1000 nmol/L
Experimental: as §1

HER4 = HER4 (Homo sapiens, UniProt Q15303); test: panel enzyme assay of 257 kinases; format: biochemical; conditions: read-out: % Inhibition by Compound (1) at 1000 nmol/L
Experimental: as §1

BCRP = test system: T1, BCRP; test: substrate susceptibility on human BCRP, bidirectional transcellular transport, BCRP/MDCK II cells; format: in vitro ADME; conditions: human, with Ko143 10 μmol/L; read-out: net flux ratio
T1 construct: expressed in transfected cells; host or cells: MDCK II (canine kidney) cells expressing human BCRP; parent MDCK II as control
Experimental: (§2) Substrate susceptibility of Compound (1) on human BCRP. Time-dependence of the bidirectional transcellular transport of 0.3, 0.5, 1, 3, and 30 μmol/L Compound (1) across human BCRP/Madin-Darby canine kidney II (MDCK II) cells and parent/MDCK II cells was analyzed.

human BCRP [2] = test system: T2, human BCRP; test: as above; format: in vitro ADME; conditions: human
T2 construct: expressed in transfected cells; host or cells: MDCK II (canine kidney) cells expressing human BCRP; parent MDCK II as control
Experimental: as §2

human BCRP [3] = biological target: T3, human BCRP (Homo sapiens, UniProt Q9UNQ0); test: as above; format: in vitro ADME; set-up: expressed in transfected cells; host or cells: MDCK II (canine kidney) cells expressing human BCRP; parent MDCK II as control
T3 sequence (Q9UNQ0 1-655): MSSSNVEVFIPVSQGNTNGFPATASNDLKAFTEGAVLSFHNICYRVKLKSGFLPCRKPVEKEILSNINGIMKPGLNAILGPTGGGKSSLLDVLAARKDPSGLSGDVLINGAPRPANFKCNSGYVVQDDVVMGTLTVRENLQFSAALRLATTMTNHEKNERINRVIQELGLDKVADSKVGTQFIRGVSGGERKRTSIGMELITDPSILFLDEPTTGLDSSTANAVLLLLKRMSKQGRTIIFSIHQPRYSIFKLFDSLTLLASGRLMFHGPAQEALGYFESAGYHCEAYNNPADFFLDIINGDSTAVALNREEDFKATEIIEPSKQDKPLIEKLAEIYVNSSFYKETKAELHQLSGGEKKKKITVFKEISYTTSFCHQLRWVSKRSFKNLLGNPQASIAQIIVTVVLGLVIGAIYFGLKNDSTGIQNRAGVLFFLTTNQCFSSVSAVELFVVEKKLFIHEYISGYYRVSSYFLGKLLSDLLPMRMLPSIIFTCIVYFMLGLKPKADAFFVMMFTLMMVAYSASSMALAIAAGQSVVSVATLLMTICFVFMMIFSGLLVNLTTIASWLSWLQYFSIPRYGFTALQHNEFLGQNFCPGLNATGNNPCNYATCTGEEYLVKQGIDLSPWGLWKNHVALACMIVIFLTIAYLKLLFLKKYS
Experimental: as §2

[4] = test system: NCI-N87 xenografts relapsed from T-mab and P-mab; test: refractory T-mab/P-mab model Step II; format: in vivo; conditions: for RTV (mean ± SE): Day 15 to Day 1 (Step II); for BWC (mean ± SE): Day 15 vs Day 1 (Step II); for T/C: Step II Day 15, vs T-mab + P-mab group; for Number of Death / TV (mean ± SE): Step II Day 15
Experimental: Male nude mice (BALB/cAJcl-mu/mu) were implanted with NCI-N87 human gastric carcinoma (HER2 overexpressing); 1.0×10^7 cells in 100 μL of PBS were implanted subcutaneously per mouse.
The tumor volumes (TV, mm^3) and body weights of the mice were recorded.

HER4, sequence (Q15303 26-1308, species assumed): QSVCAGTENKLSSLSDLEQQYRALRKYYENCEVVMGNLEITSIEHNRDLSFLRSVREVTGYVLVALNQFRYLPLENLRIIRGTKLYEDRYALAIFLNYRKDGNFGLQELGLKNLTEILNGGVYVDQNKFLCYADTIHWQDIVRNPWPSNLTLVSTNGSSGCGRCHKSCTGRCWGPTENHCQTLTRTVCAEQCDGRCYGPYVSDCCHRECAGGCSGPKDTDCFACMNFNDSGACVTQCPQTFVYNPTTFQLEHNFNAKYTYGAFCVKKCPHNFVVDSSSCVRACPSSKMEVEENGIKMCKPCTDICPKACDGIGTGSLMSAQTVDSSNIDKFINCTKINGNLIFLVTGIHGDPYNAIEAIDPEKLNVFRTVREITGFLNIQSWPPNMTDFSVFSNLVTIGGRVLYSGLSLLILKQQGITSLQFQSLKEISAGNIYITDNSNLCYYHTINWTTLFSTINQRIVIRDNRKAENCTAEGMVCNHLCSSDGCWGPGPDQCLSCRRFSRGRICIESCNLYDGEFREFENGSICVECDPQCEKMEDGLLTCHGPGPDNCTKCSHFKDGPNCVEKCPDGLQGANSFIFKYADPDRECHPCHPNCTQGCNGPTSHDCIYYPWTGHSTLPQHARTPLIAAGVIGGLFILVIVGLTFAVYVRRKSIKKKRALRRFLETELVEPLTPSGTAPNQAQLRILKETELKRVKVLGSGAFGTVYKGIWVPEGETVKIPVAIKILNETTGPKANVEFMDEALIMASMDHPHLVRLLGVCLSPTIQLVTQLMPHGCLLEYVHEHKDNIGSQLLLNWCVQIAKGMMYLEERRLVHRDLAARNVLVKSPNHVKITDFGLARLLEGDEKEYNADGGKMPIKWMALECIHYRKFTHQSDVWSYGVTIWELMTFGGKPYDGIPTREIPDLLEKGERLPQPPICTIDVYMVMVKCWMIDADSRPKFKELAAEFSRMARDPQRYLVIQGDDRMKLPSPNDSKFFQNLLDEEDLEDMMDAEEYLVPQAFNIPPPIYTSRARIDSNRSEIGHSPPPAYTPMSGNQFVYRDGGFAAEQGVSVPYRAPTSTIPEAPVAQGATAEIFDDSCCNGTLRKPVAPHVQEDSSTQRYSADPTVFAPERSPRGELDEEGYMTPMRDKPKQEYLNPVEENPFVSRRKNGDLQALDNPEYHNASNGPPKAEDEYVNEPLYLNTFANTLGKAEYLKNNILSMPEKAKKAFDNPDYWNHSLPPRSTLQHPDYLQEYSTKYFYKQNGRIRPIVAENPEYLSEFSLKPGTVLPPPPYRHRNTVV
TXK, sequence (P42681 whole entry, species assumed): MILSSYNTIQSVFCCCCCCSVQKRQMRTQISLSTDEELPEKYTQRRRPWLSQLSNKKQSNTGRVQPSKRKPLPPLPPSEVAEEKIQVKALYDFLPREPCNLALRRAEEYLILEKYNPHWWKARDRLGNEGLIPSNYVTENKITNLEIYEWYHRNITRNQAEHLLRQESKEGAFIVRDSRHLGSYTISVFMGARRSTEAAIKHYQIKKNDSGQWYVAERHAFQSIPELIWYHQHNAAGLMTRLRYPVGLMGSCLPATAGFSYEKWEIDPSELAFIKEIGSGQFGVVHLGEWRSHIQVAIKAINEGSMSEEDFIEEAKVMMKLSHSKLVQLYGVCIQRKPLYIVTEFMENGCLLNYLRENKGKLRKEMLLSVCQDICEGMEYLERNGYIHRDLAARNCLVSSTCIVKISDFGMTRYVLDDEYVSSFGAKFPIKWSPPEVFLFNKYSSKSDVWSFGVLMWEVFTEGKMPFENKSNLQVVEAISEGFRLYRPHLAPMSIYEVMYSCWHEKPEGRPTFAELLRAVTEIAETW
BLK, sequence (P51451 whole entry, species assumed): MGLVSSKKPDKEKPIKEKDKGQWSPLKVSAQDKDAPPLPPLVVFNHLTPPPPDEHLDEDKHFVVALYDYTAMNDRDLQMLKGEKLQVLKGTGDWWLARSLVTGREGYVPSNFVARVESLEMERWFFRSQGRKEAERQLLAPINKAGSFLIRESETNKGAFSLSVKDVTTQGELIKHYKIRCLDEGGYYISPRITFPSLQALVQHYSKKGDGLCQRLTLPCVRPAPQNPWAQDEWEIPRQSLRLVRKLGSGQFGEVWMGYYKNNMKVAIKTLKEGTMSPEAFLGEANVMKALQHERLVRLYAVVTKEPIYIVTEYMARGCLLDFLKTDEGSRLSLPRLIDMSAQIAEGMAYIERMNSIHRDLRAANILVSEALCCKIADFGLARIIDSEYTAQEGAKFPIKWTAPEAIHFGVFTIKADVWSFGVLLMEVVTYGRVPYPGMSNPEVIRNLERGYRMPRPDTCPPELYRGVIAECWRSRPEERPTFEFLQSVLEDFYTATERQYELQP
HER2, sequence (P04626 23-1255): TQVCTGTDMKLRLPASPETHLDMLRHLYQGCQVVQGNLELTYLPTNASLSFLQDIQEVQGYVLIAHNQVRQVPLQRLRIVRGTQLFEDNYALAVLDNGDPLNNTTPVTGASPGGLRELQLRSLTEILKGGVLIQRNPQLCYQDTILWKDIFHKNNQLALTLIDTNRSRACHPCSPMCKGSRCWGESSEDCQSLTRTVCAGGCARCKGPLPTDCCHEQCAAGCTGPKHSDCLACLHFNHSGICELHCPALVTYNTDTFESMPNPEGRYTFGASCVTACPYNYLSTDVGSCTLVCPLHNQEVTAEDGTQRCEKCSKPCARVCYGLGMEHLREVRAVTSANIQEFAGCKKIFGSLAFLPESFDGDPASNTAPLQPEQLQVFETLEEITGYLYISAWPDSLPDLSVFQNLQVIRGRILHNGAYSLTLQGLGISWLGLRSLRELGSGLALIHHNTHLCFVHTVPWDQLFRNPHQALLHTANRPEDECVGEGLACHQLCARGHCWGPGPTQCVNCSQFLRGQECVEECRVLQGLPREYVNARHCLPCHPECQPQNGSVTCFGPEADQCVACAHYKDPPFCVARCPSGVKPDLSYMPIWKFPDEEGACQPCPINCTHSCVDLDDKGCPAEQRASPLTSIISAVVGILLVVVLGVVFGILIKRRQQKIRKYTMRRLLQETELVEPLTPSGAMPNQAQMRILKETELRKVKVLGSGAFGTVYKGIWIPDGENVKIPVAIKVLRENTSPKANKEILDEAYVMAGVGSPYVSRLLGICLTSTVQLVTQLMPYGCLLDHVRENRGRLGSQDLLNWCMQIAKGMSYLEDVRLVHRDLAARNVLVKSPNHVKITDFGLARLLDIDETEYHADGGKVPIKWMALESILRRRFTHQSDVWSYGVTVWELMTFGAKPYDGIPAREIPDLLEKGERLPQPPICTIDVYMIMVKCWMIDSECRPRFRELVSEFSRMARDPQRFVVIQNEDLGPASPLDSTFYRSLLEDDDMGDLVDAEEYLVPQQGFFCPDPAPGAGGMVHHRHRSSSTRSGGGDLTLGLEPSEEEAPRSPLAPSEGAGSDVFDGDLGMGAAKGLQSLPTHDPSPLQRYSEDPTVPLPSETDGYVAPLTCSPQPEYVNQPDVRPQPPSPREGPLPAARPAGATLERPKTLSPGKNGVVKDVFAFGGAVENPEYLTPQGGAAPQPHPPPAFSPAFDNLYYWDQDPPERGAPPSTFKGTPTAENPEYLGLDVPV
ITK, sequence (Q08881 whole entry, species assumed): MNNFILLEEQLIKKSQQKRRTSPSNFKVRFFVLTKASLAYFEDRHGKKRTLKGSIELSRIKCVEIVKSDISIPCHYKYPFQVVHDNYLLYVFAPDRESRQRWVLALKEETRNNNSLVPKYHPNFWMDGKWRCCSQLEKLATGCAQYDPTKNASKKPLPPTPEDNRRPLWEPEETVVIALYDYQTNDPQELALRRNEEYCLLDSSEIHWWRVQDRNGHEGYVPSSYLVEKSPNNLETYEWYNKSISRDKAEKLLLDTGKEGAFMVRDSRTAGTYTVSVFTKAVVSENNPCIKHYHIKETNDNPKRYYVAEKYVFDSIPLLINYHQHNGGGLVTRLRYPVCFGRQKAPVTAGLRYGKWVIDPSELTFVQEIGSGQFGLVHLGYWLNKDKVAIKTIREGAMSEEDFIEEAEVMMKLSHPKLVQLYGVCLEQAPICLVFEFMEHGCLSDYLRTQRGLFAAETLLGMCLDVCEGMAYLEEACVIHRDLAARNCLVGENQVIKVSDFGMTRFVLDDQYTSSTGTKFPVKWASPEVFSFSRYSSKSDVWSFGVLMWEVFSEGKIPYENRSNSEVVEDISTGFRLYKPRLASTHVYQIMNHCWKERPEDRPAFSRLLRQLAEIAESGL
BTK, sequence (Q06187 whole entry, species assumed): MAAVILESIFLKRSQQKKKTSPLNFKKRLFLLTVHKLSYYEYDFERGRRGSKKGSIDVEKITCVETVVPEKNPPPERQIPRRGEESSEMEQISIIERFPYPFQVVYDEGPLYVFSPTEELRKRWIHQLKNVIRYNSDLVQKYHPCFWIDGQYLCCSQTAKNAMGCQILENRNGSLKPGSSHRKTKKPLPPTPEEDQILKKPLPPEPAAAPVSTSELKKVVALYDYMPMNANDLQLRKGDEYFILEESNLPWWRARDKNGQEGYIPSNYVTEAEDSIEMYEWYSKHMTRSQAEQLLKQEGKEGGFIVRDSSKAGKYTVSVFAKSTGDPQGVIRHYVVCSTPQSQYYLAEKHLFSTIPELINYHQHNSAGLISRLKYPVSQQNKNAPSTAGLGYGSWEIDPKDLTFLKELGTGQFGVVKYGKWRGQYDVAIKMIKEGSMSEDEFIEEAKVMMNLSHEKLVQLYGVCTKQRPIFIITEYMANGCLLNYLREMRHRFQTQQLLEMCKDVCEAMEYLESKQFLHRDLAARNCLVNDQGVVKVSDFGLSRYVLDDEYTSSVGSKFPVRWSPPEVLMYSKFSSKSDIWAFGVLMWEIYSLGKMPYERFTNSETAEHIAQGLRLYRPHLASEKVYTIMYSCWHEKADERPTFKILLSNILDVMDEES

`C=CC(=O)N1C[C@H](n2c(C#CC3CC3)c(C(=O)N[C@H](C)c3ccccc3)c3c(N)ncnc32)C[C@@H]1C` [Compound (1), 7-((3R,5S)-1-acryloyl-5-methylpyrrolidin-3-yl)-4-amino-6-(cyclopropylethynyl)-N—((R)-1-phenylethyl)-7H-pyrrolo[2,3-d]pyrimidine-5-carboxamide] was tested, and the GI50 [1] was 23.3 ± 1.4 nM, the inhibition at 1 µM (TEC) was 81.7% and the inhibition at 1 µM (HER2) was 100%. It also gave an inhibition at 1 µM (BMX) of 98.9%, an inhibition at 1 µM (TXK) of 89.4% and an inhibition at 1 µM (EPHA6) of 72.9%. It also gave an inhibition at 1 µM (BTK) of 80%, an inhibition at 1 µM (KDR) of 67.2% and an inhibition at 1 µM (BLK) of 64.7%. It also gave an inhibition at 1 µM (FLT4) of 80.4%, an inhibition at 1 µM (DDR1) of 86% and an inhibition at 1 µM (JAK3) of 99.2%. It also gave an inhibition at 1 µM (ITK) of 56.4%, an inhibition at 1 µM (EGFR) of 98.3% and an inhibition at 1 µM (HER4) of 98.4%. The efflux ratio at 2 h (BCRP) was 2 ± 0.5, the efflux ratio at 3 h (BCRP) was 1.4 ± 0.2 and the efflux ratio at 2 h, 0.5 μmol/L (human BCRP [2]; with Ko143 10 μmol/L, read-out: net flux ratio) was 1.2 ± 0.3. For the same compound, the efflux ratio at 4 h, 0.3 μmol/L (human BCRP [2]; with Ko143 (concentration not stated for this arm), read-out: net flux ratio) was 1.1 ± 0.2, the efflux ratio at 0.3 μmol/L (human BCRP [2]; 0.3 μmol/L Compound (1), 3 and 4 hours, read-out: flux ratios in parent and human BCRP/MDCK II cells) was > 2 and the “concentration at which transport via human BCRP is saturable” value (human BCRP [3]) was > 1000 nM. The net flux ratio (human BCRP [3]; 0.3 μmol/L Compound (1), 4 hours) was 1.5±0.6, the net flux ratio (human BCRP [3]; 0.5 μmol/L Compound (1) with 10 μmol/L Ko143, 3 hours) was 1.2±0.2 and the net flux ratio (human BCRP [3]; 0.5 μmol/L Compound (1) with 10 μmol/L Ko143, 4 hours) was 1.2±0.2. For the same compound, the net flux ratio (human BCRP [3]; 0.5 μmol/L Compound (1), 2 hours) was 1.9±0.9, the net flux ratio (human BCRP [3]; 0.5 μmol/L Compound (1), 3 hours) was 3.0±0.9 and the net flux ratio (human BCRP [3]; 0.5 μmol/L Compound (1), 4 hours) was 2.7±0.8. For the same compound, the net flux ratio (human BCRP [3]; 1 μmol/L Compound (1) with 10 μmol/L Ko143, 4 hours) was 1.4±0.2, the net flux ratio (human BCRP [3]; 1 μmol/L Compound (1), 2 hours) was 2.3±0.7 and the net flux ratio (human BCRP [3]; 1 μmol/L Compound (1), 3 hours) was 1.8±0.4. The net flux ratio (human BCRP [3]; 1 μmol/L Compound (1), 4 hours) was 2.2±0.7, the net flux ratio (human BCRP [3]; 3 μmol/L Compound (1), 2 hours) was 2.0±0.3 and the net flux ratio (human BCRP [3]; 3 μmol/L Compound (1), 3 hours) was 1.6±0.3. For the same compound, the net flux ratio (human BCRP [3]; 3 μmol/L Compound (1), 4 hours) was 1.5±0.2, the net flux ratio (human BCRP [3]; 30 μmol/L Compound (1), 2 hours) was 1.4±0.3 and the net flux ratio (human BCRP [3]; 30 μmol/L Compound (1), 3 hours) was 1.1±0.1. The net flux ratio (human BCRP [3]; 30 μmol/L Compound (1), 4 hours) was 1.2±0.1, the “substrate susceptibility on human BCRP” value (human BCRP [3]; criterion net flux ratio exceeding 2) was “substrate of BCRP” and the “body weight loss (tolerance)” value ([4]; 12.5 and 25 mg/kg/day) was “did not cause severe body weight loss”. For the same compound, the “RTV (mean ± SE)” value ([4]; 12.5 mg/kg/day po Days 1-14) was 1.2, the “RTV (mean ± SE)” value ([4]; 25 mg/kg/day po Days 1-14) was 1.0 and the “BWC (mean ± SE)” value ([4]; 12.5 mg/kg/day po Days 1-14) was −1.2%. The “BWC (mean ± SE)” value ([4]; 25 mg/kg/day po Days 1-14) was −4.4%, the T/C ([4]; 12.5 mg/kg/day po Days 1-14) was 52.5% and the T/C ([4]; 25 mg/kg/day po Days 1-14) was 46.1%. The “Number of Death” value ([4]; 12.5 mg/kg/day po Days 1-14) was 0, the “TV (mean ± SE)” value ([4]; 12.5 mg/kg/day po Days 1-14) was 412.5 mm^3 and the “Number of Death” value ([4]; 25 mg/kg/day po Days 1-14) was 0. For the same compound, the “TV (mean ± SE)” value ([4]; 25 mg/kg/day po Days 1-14) was 362.4 mm^3.
